What was measured:
PC-3 cells = experiment: Cell growth inhibition assay, PC-3; format: cell-based; settings: Homo sapiens, 96 h; Table 1; PC-3, prostate carcinoma; growth up to 4 days
Description: Human epitheloid cervical carcinoma HeLa cells, human breast adenocarcinoma MCF7 and MDA-MB-231cells, human hepatocellular carcinoma HepG2 cells, human colon adenocarcinoma HT-29 cells, and human colorectal carcinoma HCT-116 cells were purchased from ATCC® and maintained in DMEM medium. Human prostate carcinoma PC-3 cells (purchased from ATCC®), human gastric carcinoma SNU-484 and SNU-601(obtained from Korean Cell Line Bank (KCLB)), human leukemia K-562 and HL-60 cells (purchased from ATCC®), immortalized human prostate epithelial 267B1cells, and immortalized human embryonic lung fibroblast MRC5CV1 cells were maintained in RPMI 1640 medium whereas immortalized retinal pigment epithelial hTERT RPE-1 cells (purchased from ATCC®) were maintained in DMEM/F12 medium. All cell lines were cultured in media supplemented with 10% fetal bovine serum, 100 U/ml penicillin, and […] streptomycin at 37°C in a 5% CO2 incubator.
Cells were seeded at the appropriate amount (1–2×10^3 cells) in triplicate in 96-well plates for 24 h and then treated with various concentrations of STK295900. Cell growth was determined by using EZ-CyTox cell viability assay kit (Daeil Lab. Service, Seoul, Korea). Ten microliters of WST solution were added to the treated cells at 24, 48, 72, and 96 h. Cells were further incubated at 37°C for 2 h and the absorbance was measured at 450 nm.

HeLa cells = experiment: Immunoblot of cell cycle and DNA damage checkpoint proteins; format: cell-based, human; settings: 24 h, STK295900 1 or 5 µM, camptothecin 10 µM, etoposide 10 µM
Method: Cells were lysed with cold RIPA buffer (50 mM Tris-HCl pH 8.0, 150 mM NaCl, 1% NP-40, 0.5% sodium deoxycholate, 0.1% SDS) containing freshly added protease inhibitor, phosphatase inhibitor (SIGMA), 1 mM DTT, and 1 mM Na3VO4 on ice for 1 h. Whole cell lysates were centrifuged at 15,000 rpm for 20 min and then the supernatant was transferred into a new tube. An appropriate amount of cell lysate was subjected to SDS-PAGE. Then the resolved proteins were transferred onto a PVDF membrane (Bio-Rad) for immunoblot analyses with specific antibodies. The proteins were detected using chemiluminescence solution (Thermo Scientific, Rockford, IL).
(A) Flow cytometric analysis for cell cycle distribution. HeLa cells were treated with the indicated concentrations of STK295900 for 24 h. Treated cells were then stained with propidium iodide (PI) and processed for cell cycle analysis. The bar graph represents the mean percentage of each cell cycle phase ± SD from three independent experiments. * = p<0.05 versus the respective G1, S, or G2/M phase of DMSO-treated cells. (B) Mitotic index of STK295900. HeLa cells were treated with the indicated concentrations of STK295900 for 24 h. Cells were then stained with Hoechst 33342 and mitotic cells were counted. […] (C) Cell cycle related proteins expression. […] Treated cells were lysed and subjected to immunoblot analyses with antibodies against cyclin A, cyclin B1, phospho-Histone H3 (S10), and Histone H3. β-actin was used as a loading control.
(A) G2/M transition regulated proteins expression. […] GAPDH was used as a loading control. (B) DNA damage-checkpoint related proteins. […] Images were analyzed on a fluorescence microscope.

With Nc1ccc(-c2nc3ccc(-c4ccc5nc(-c6ccc(N)cc6)[nH]c5c4)cc3[nH]2)cc1 [STK295900, 4,4′-(3H,3′H-5,5′-bibenzimidazole-2,2′-diyl)dianiline] as the compound, how does the IC50 (PC-3 cells) read?
The IC50 was 2720 nM.

And the “p53 and p21 levels” value (HeLa cells)?
The value was “did not induce upregulation of p53 but marginally affected p21 level”.

What about the “phosphorylation-dependent activation of ATM (S1981), ATR (S428), Chk1 (S345), and Chk2 (T68)” value (HeLa cells) of the same compound?
Its value is “no increase in phosphorylations of ATM, ATR, Chk1, and Chk1”.

What about the “Phosphorylation of Cdk1 at T161” value (HeLa cells; nocodazole 200 ng/ml) of the same compound?
The value was “dose-dependent increase”.

What about the “Wee1 and Cdc25C levels” value (HeLa cells; nocodazole 200 ng/ml) of the same compound?
Its value is “no change in Wee1 and Cdc25C levels”.

And the “cyclin A and cyclin B1 levels” value (HeLa cells; nocodazole 200 ng/ml)?
Its value is “accumulations of cyclin A and cyclin B1”.

And the “inhibitory phosphorylation of Cdk1 (T14 and Y15)” value (HeLa cells; nocodazole 200 ng/ml)?
Its value is “dose-dependent increase”.

Source: PMC3551932, “STK295900, a Dual Inhibitor of Topoisomerase 1 and 2, Induces G2 Arrest in the Absence of DNA Damage” (PLoS ONE, 2013)
